Assay [1] has as its system Capan-1 (K-Ras G12V). The assay is described as follows: CellTiter-Glo cell viability assay, 5-day treatment. The conditions noted are these: Homo sapiens, CAPAN-1, 120 h, 5-day treatment; read-out: Capan-1 Cell Viability assay data (K-Ras G12V, IC50). It is filed as cell-based. In outline:
(§1)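 Viability is read as luminescence on day 5 after direct compound addition to plated cells, following about 30 minutes' room-temperature equilibration. Each signal is scaled to mean DMSO as 100%.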
On the technique in general: In ATP-based viability assays light output follows the ATP content of the culture.

For assay [2], the system named is NCI-H358 (K-Ras G12C). Described as above. It is filed as cell-based. The conditions noted are these: Homo sapiens, NCI-H358, 120 h, 5-day treatment; read-out: H358 Cell Viability assay data (K-Ras G12C, IC50). The method in brief:
as §1

Assay [3] addresses NRAS G12C (Homo sapiens, UniProt P01111+P62937, G12C). Description: Disruption of BRAF RBD interaction with Ras (FRET / MOA assay, with Cyclophilin A). The format is biochemical.
In assay [4] the target is KRAS G12D (Homo sapiens, UniProt P01116+P62937, G12D). The assay is described as above. The format is biochemical. The method in brief: (§2)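 Compound-driven ternary complex formation between nucleotide-loaded K-Ras and Cyclophilin A was measured as loss of BRAF RBD binding. Compounds (10-point 3-fold series, top 30 μM final) were incubated 3 h at 25 °C, then anti-His Eu-W1024 (10 nM) and anti-GST allophycocyanin (50 nM) added for 1.5 h. IC50 was taken from the TR-FRET ratio decrease versus DMSO.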
Sequence of KRAS G12D (P01116 1-169 isoform P01116-2 G12D limits assumed): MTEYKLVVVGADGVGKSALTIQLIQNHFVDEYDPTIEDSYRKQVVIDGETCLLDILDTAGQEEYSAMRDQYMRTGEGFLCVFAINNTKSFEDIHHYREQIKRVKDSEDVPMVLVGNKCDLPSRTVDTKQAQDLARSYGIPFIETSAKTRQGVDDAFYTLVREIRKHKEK
Sequence of KRAS G12D (P62937 whole entry): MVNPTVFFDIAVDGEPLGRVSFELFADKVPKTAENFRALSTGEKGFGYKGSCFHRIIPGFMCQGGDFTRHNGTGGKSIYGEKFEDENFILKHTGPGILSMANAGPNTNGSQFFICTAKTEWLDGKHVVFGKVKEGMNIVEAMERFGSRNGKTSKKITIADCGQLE

For assay [5], the target named is KRAS G12V (Homo sapiens, UniProt P01116+P62937, G12V). The assay is described as above. It is filed as biochemical. The method in brief: as §2
Sequence of KRAS G12V (P01116 1-169 isoform P01116-2 G12V limits assumed): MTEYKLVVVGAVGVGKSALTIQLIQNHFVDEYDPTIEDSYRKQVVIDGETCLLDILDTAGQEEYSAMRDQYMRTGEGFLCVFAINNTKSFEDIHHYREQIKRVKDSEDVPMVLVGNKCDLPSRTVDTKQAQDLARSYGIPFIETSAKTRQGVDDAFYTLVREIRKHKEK
Sequence of KRAS G12V (P62937 whole entry): as the sequence (P62937 whole entry) above
Assay [6] has as its target KRAS G12C (Homo sapiens, UniProt P01116+P62937, G12C). The description is as above. The format is biochemical. In outline:
as §2

Assay [7] has as its target KRAS G13D (Homo sapiens, UniProt P01116+P62937, G13D). The description is as above. It is filed as biochemical. In outline:
as §2

Assay [8] has as its target KRAS G13C (Homo sapiens, UniProt P01116+P62937, G13C). The assay is described as above. The format is biochemical. The method in brief: as §2
Assay [9] concerns the target KRAS G12S (Homo sapiens, UniProt P01116+P62937, G12S). Described as above. The format is biochemical. In outline:
as §2

For assay [10], the target named is KRAS WT (Homo sapiens, UniProt P01116+P62937). Described as above. The format is biochemical. In outline:
as §2

Assay [11] has as its target KRAS Q61H (Homo sapiens, UniProt P01116+P62937, Q61H). The assay is described as above. It is filed as biochemical. The method in brief:
(§3)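 TR-FRET in 25 mM HEPES pH 7.3, 100 mM NaCl, 5 mM MgCl2, 0.1% BSA: 25 μM Cyclophilin A, 12.5 nM His6-Ras-GMPPNP, 50 nM GST-BRAF RBD with compound (10-point 3-fold series from 30 μM), 3 h at 25° C. Anti-His Eu/anti-GST APC added, 1.5 h more; IC50 from decreased FRET ratio versus DMSO.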

Assay [12] has as its target NRAS Q61R (Homo sapiens, UniProt P01111+P62937, Q61R). Described as above. The format is biochemical. The method in brief: as §3
For assay [13], the target named is NRAS Q61K (Homo sapiens, UniProt P01111+P62937, Q61K). Described as above. The format is biochemical. In outline:
as §3

The target in assay [14] is NRAS WT (Homo sapiens, UniProt P01111+P62937). The assay is described as above. It is filed as biochemical. In outline: as §3
Sequence of NRAS WT (P01111 whole entry): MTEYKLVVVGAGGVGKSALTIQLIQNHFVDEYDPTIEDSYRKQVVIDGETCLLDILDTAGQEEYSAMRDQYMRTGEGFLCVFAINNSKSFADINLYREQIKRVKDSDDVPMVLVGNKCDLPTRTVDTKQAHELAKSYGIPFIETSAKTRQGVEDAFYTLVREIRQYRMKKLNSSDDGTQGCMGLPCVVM
Sequence of NRAS WT (P62937 whole entry): as the sequence (P62937 whole entry) above
The mark [15] stands for this setting: NRAS G12C FRET data IC50, NRAS G12C.
The mark [16] stands for this setting: KRAS G12V FRET data IC50, KRAS G12V.
Where [17] appears, read: KRAS G13D FRET data IC50, KRAS G13D.
Where [18] appears, read: KRAS WT FRET data IC50, KRAS WT.
[19] abbreviates: KRAS Q61H FRET data IC50, KRAS Q61H.
Where [20] appears, read: NRAS Q61R FRET data IC50, NRAS Q61R.
[21] abbreviates: NRAS Q61K FRET data IC50, NRAS Q61K.
Where [22] appears, read: NRAS WT FRET data IC50, NRAS WT.
[23] abbreviates: NRAS G12C, read-out: NRAS G12C FRET data IC50.
[24] abbreviates: read-out: KRAS G12D FRET data, IC50.
Setting [25] is: KRAS G12V, read-out: KRAS G12V FRET data IC50.
Setting [26] is: read-out: KRAS G12C FRET data, IC50.
[27] abbreviates: KRAS G13D, read-out: KRAS G13D FRET data IC50.
The mark [28] stands for this setting: read-out: KRAS G13C FRET data, IC50.
The mark [29] stands for this setting: read-out: KRAS G12S FRET data, IC50.
The mark [30] stands for this setting: KRAS WT, read-out: KRAS WT FRET data IC50.
[31] abbreviates: KRAS Q61H, read-out: KRAS Q61H FRET data IC50.
Where [32] appears, read: NRAS Q61R, read-out: NRAS Q61R FRET data IC50.
[33] abbreviates: NRAS Q61K, read-out: NRAS Q61K FRET data IC50.
[34] abbreviates: NRAS WT, read-out: NRAS WT FRET data IC50.

Like-named read-outs stand apart in the source and are kept apart here. A value given as a limit tells only on which side of the number the result lay.

Sequence of NRAS Q61K (P01111 whole entry Q61K): as the sequence (P01111 whole entry) above, with Q61K counted along it
Sequence of NRAS Q61K (P62937 whole entry): as the sequence (P62937 whole entry) above
Sequence of NRAS G12C (P01111 whole entry G12C): as the sequence (P01111 whole entry) above, with G12C counted along it
Sequence of NRAS G12C (P62937 whole entry): as the sequence (P62937 whole entry) above
Sequence of KRAS G13D (P01116 1-169 isoform P01116-2 G13D limits assumed): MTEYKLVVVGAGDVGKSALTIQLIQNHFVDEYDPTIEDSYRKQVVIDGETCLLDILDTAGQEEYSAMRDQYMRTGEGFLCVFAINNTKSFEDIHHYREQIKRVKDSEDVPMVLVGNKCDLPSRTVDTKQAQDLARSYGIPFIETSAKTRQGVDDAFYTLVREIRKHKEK
Sequence of KRAS G13D (P62937 whole entry): as the sequence (P62937 whole entry) above
Sequence of KRAS G12S (P01116 1-169 isoform P01116-2 G12S limits assumed): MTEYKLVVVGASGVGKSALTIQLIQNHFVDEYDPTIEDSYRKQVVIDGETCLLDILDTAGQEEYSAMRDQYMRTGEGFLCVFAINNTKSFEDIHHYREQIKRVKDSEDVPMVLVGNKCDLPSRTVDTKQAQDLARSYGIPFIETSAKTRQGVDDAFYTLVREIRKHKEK
Sequence of KRAS G12S (P62937 whole entry): as the sequence (P62937 whole entry) above
Sequence of NRAS Q61R (P01111 whole entry Q61R): as the sequence (P01111 whole entry) above, with Q61R counted along it
Sequence of NRAS Q61R (P62937 whole entry): as the sequence (P62937 whole entry) above
Sequence of KRAS G12C (P01116 1-169 isoform P01116-2 G12C): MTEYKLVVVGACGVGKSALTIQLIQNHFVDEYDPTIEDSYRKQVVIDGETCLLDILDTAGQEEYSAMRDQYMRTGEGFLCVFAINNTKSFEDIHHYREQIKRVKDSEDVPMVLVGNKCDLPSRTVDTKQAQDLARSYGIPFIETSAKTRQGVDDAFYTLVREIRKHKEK
Sequence of KRAS G12C (P62937 whole entry): as the sequence (P62937 whole entry) above
Sequence of KRAS WT (P01116 1-169 isoform P01116-2 limits assumed): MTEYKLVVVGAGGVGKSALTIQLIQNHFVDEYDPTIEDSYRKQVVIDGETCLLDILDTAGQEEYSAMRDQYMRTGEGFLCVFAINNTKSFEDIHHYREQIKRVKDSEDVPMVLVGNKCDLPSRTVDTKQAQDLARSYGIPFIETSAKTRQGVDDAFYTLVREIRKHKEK
Sequence of KRAS WT (P62937 whole entry): as the sequence (P62937 whole entry) above
Sequence of KRAS Q61H (P01116 1-169 isoform P01116-2 Q61H limits assumed): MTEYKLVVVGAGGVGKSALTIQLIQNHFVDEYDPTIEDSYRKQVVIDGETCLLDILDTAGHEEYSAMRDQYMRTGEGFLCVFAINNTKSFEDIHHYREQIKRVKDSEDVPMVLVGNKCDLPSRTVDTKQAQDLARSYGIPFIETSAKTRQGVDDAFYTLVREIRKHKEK
Sequence of KRAS Q61H (P62937 whole entry): as the sequence (P62937 whole entry) above
Sequence of KRAS G13C (P01116 1-169 isoform P01116-2 G13C): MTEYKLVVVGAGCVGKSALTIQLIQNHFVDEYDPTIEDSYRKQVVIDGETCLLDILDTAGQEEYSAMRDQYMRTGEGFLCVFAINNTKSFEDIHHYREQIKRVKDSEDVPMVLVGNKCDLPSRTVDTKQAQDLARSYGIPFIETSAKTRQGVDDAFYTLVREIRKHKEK
Sequence of KRAS G13C (P62937 whole entry): as the sequence (P62937 whole entry) above

As usually defined, the IC50 is the point on the concentration scale where inhibition reaches its midpoint. `CCn1c(-c2cnccc2COC)c2c3cc(ccc31)-c1cc(O)cc(c1)C[C@H](NC(=O)[C@H](C(C)C)N(C)C(=O)[C@H]1CCN(S(C)(=O)=O)C1)C(=O)N1CCC[C@H](N1)C(=O)OCC(C)(C)C2` [Example A24, (2S)—N-[(8S,14S)-22-ethyl-4-hydroxy-21-[4-(methoxymethyl)pyridin-3-yl]-18,18-dimethyl-9,15-dioxo-16-oxa-10,22,28-triazapentacyclo[18.5.2.1^2,6.1^10,14.0^23,27]nonacosa-1(26),2,4,6(29),20,23(27),24-heptaen-8-yl]-2-{1-[(3S)-1-methanesulfonylpyrrolidin-3-yl]-N-methylformamido}-3-methylbutanamide]: the IC50 in assay [1] fell in the range of 1 to 10 µM; in assay [2] it was 1 to 10 µM; in assay [3] (setting [15]), 0.1 to 1 µM; in assay [4] (KRAS G12D FRET data, IC50), 1 to 10 µM; in assay [5] (setting [16]), 0.1 to 1 µM; in assay [6] (KRAS G12C FRET data, IC50), 0.1 to 1 µM. The IC50 in assay [7] (setting [17]) fell in the range of 0.1 to 1 µM; in assay [8] (KRAS G13C FRET data, IC50) it was 0.1 to 1 µM; in assay [9] (KRAS G12S FRET data, IC50), 0.1 to 1 µM; in assay [10] (setting [18]), 0.1 to 1 µM; in assay [11] (setting [19]), 0.01 to 0.1 µM; in assay [12] (setting [20]) it was 0.1 to 1 µM. Moreover, the IC50 in [13] (setting [21]) and in assay [14] (setting [22]) was 0.1 to 1 µM throughout.
With `CCn1c(-c2cccnc2[C@H](C)OC)c2c3cc(ccc31)-c1csc(n1)C[C@H](NC(=O)[C@H](C(C)C)N(C)C(=O)[C@H]1CCN(C(=O)CNC)C1)C(=O)N1CCC[C@H](N1)C(=O)OCC(C)(C)C2` [Example A99], the IC50 was over 10 µM in assay [1]; over 10 µM in [2]; 0.1 to 1 µM in assay [3] (setting [23]); 0.1 to 1 µM in assay [4] (setting [24]); 1 to 10 µM in [5] (setting [25]); 0.1 to 1 µM in assay [6] (setting [26]). For the same compound, the IC50 in assay [7] (setting [27]) lay within 1 to 10 µM; in assay [8] (setting [28]), 0.1 to 1 µM; in assay [9] (setting [29]), 1 to 10 µM; in [10] (setting [30]), 0.1 to 1 µM; in assay [11] (setting [31]), 0.1 to 1 µM; in [12] (setting [32]) it was 1 to 10 µM. Further, the IC50 in assay [13] (setting [33]) was in the range of 1 to 10 µM; in [14] (setting [34]), 0.1 to 1 µM.
Consider `CCn1c(-c2cnccc2COC)c2c3cc(ccc31)-c1cc(O)cc(c1)C[C@H](NC(=O)[C@H](C(C)C)N1COCC1=O)C(=O)N1CCC[C@H](N1)C(=O)OCC(C)(C)C2` [Example A102], for which the half-inhibitory concentration (IC50) in [1] was in the range of 0.1 to 1 µM; in assay [2], 1 to 10 µM; in assay [3] (setting [23]), 0.1 to 1 µM; in [4] (setting [24]), 0.1 to 1 µM; in assay [5] (setting [25]) it was 0.1 to 1 µM; in [6] (setting [26]) it was 0.1 to 1 µM. Besides, the IC50 in assay [7] (setting [27]) is 0.1 to 1 µM; in assay [8] (setting [28]), 0.01 to 0.1 µM; in [9] (setting [29]), 0.1 to 1 µM; in assay [10] (setting [30]) it was 0.1 to 1 µM; in assay [11] (setting [31]) it was 0.01 to 0.1 µM; in assay [12] (setting [32]) it was 0.1 to 1 µM. Also, the IC50 in assay [13] (setting [33]) and in assay [14] (setting [34]) was 0.1 to 1 µM throughout.
With `CCn1c(-c2cccnc2[C@H](C)OC)c2c3cc(ccc31)-c1csc(n1)C[C@H](NC(=O)[C@H](C(C)C)N(C)C(=O)OC)C(=O)N1CCC[C@H](N1)C(=O)OCC(C)(C)C2` [Example A138], the IC50 was in the range of 0.01 to 0.1 µM in assay [1]; 0.01 to 0.1 µM in assay [2]; 0.1 to 1 µM in [3] (setting [15]); 1 to 10 µM in [4] (KRAS G12D FRET data, IC50); 0.1 to 1 µM in assay [5] (setting [16]); 0.1 to 1 µM in assay [6] (KRAS G12C FRET data, IC50). The IC50 was in the range of 1 to 10 µM in [7] (setting [17]); 0.1 to 1 µM in [8] (KRAS G13C FRET data, IC50); 1 to 10 µM in assay [9] (KRAS G12S FRET data, IC50); 0.1 to 1 µM in assay [10] (setting [18]); 0.1 to 1 µM in [11] (setting [19]); 0.1 to 1 µM in assay [12] (setting [20]). Besides, the IC50 in assay [13] (setting [21]) and in assay [14] (setting [22]) was 0.1 to 1 µM throughout.

Values taken from patent US20230233569A1 (Revolution Medicines, Inc., priority 2020, published 2023).
